The record followed here is ChEMBL document CHEMBL1136940, “Design and implementation of an ribonucleic acid (RNA) directed fragment library” (J Med Chem, 2009).

Calls of active or inactive are those of the source. No cut-off for these calls is given here. *1 amine or outer side, *2 acyl side, *3 side chain or, on linkers, in order; H or OH if unused. Where a SMILES comes first, the peptide text is derived from it. Bridges are numbered along the chain shown (N, C = ends). [ ]: non-standard residue; d: D form. The star is where a group is joined. X1 = NC1=N[C@@H]([C@H](N[*:1])C(=O)[*:2])C[C@H](O)N1; ΔAla(Z-3-ureido) = NC(=O)N/C=C(\N)C(=O)O; β3hOrn = NCCC[C@H](N)CC(=O)*; Dap = NC[C@H](N)C(=O)O

What all share (type): nucleic-acid assay
Assay [1] deals with Nucleic Acid. Briefly: Displacement of gentamycin from Escherichia coli 16S ribosomal 27-nucleotide A-site RNA by water Logsy NMR spectroscopy based competitive displacement assay.
Assay [2] has as its system Nucleic Acid. Briefly: Displacement of gentamycin from Escherichia coli 16S ribosomal 27-nucleotide A-site RNA by T2 filter NMR spectroscopy based competitive displacement assay.
The subject of assay [3] is Nucleic Acid. The assay can be described thus: Displacement of gentamycin from RNA bulge site of Escherichia coli 16S ribosomal 27-nucleotide A-site RNA by water Logsy NMR spectroscopy based noncompetitive binding assay.
Assay [4] relates to Nucleic Acid. Briefly: Displacement of gentamycin from RNA bulge site of Escherichia coli 16S ribosomal 27-nucleotide A-site RNA by T2 filter NMR spectroscopy based competitive binding assay.
Assay [5] addresses Nucleic Acid. The assay can be described thus: Binding affinity to A-site RNA.
For assay [6], the system named is Nucleic Acid. Briefly: Binding affinity to Escherichia coli 23S rRNA L11 binding domain.
The target in assay [7] is Nucleic Acid. The assay can be described thus: Binding affinity to RNAse P.
The target in assay [8] is Nucleic Acid. Briefly: Binding affinity to small bacterial subunit RNA.
Assay [9] relates to Nucleic Acid. The assay can be described thus: Binding affinity to Escherichia coli 23S rRNA L11 binding domain in presence of protein.
Assay [10] deals with Nucleic Acid. Briefly: Binding affinity to ribosome/exit tunnel RNA region.
Assay [11] has as its target Nucleic Acid. Briefly: Binding affinity to RNA ribosome intersubuint bridge.

Turning to `Cc1cc(N(C)C)nc2cc(N)ccc12`, the outcome in [1] and in [2] was Active.

On to `N[C@@H]1C[C@H](N)[C@@H](O)[C@H](O)[C@H]1O`, for which the result in assay [1] and in assay [2] was Active.

Consider `c1ccc2nc3ccccc3cc2c1`, for which the outcome in assay [3] and in assay [4] was Active.

As usually defined, the Kd is the concentration at which binding is half-saturated. The compound `NCC[C@H](O)C(=O)N[C@@H]1C[C@H](N)[C@@H](O[C@H]2O[C@H](CN)[C@@H](O)[C@H](O)[C@H]2O)[C@H](O)[C@H]1O[C@H]1O[C@H](CO)[C@@H](O)[C@H](N)[C@H]1O` [AMIKACIN] came in with a Kd in assay [5] of 50 nM.

Turning to `CN[C@@H]1[C@@H](O[C@H]2O[C@H](CO)[C@@H](N)[C@H](O)[C@H]2O)OC2C[C@@H](N)[C@@H](O[C@H]3[C@H](O)[C@@H](O)[C@H](N)C[C@@H]3N)OC2[C@@H]1O` (stereo partly drawn) [APRAMYCIN], the Kd in [5] was found to be 60 nM.

In assay [5], `NC[C@H]1O[C@H](O[C@H]2[C@H](O)[C@@H](O[C@H]3O[C@H](CO)[C@@H](O)[C@H](N)[C@H]3O)[C@H](N)C[C@@H]2N)[C@H](N)[C@@H](O)[C@@H]1O` [BEKANAMYCIN] gave a Kd of 60 nM.

With `NC[C@@H]1O[C@H](O[C@H]2[C@@H](O)[C@H](O[C@@H]3[C@@H](O)[C@H](N)C[C@H](N)[C@H]3O[C@H]3O[C@H](CN)[C@@H](O)[C@H](O)[C@H]3N)O[C@@H]2CO)[C@H](N)[C@@H](O)[C@@H]1O` [FRAMYCETIN], binding in [5] was characterised by a dissociation constant (Kd) of 60 nM.

The compound `CN[C@@H]1[C@@H](O)[C@@H](O[C@@H]2[C@@H](O)[C@H](O[C@H]3O[C@H]([C@@H](C)O)[C@@H](O)[C@H](O)[C@H]3N)[C@@H](N)C[C@H]2N)OC[C@]1(C)O` [GENETICIN] showed a Kd in assay [5] of less than 100 nM.

On to `NC[C@@H]1O[C@@H](O[C@H]2[C@H](O)[C@@H](O[C@H]3O[C@H](CO)[C@@H](O)[C@H](N)[C@H]3O)[C@H](N)C[C@@H]2N)[C@@H](O)[C@H](O)[C@H]1O` [KANAMYCIN A], for which, in assay [5], the Kd is 100 nM.

With `NC[C@@H]1O[C@H](O[C@H]2[C@@H](O)[C@H](O[C@@H]3[C@@H](O)[C@H](N)C[C@H](N)[C@H]3O[C@H]3O[C@H](CO)[C@@H](O)C[C@H]3N)O[C@@H]2CO)[C@H](N)[C@@H](O)[C@@H]1O[C@H]1O[C@H](CO)[C@@H](O)[C@H](O)[C@@H]1O` [LIVIDOMYCIN], the Kd in [5] amounted to 28 nM.

`C=C(NC(=O)c1csc(-c2nc3c(cc2O)-c2nc(cs2)C(=O)NC(C(C)O)C(=O)N/C(=C\C)c2nc(cs2)C(=O)NC2CC(O)C(=O)OCc4cccc5[nH]c(c(C)c45)C(=O)SCC(NC(=O)c4csc2n4)c2nc-3cs2)n1)C(N)=O` (stereo not drawn) [NOSIHEPTIDE] registered a Kd in assay [6] of less than 3000 nM.

In turn, `NC[C@@H]1O[C@H](O[C@H]2[C@@H](O)[C@H](O[C@@H]3[C@@H](O)[C@H](N)C[C@H](N)[C@H]3O[C@H]3O[C@H](CO)[C@@H](O)[C@H](O)[C@H]3N)O[C@@H]2CO)[C@H](N)[C@@H](O)[C@@H]1O` [PAROMOMYCIN] showed a Kd in assay [5] of less than 12000 nM.

`NC(=O)Cc1ccccn1` [PYRIDINE ACETAMIDE]: the Kd in assay [7] amounted to 20000 nM.

For the compound `NC[C@H]1O[C@H](O[C@H]2[C@H](O[C@@H]3O[C@H](CO)[C@@H](O)[C@H]3O)[C@@H](O)[C@H](N)C[C@@H]2N)[C@H](N)[C@@H](O)[C@@H]1O` [RIBOSTAMYCIN], the Kd in assay [5] was determined as 1700 nM.

As for `CN[C@@H]1[C@H](O[C@H]2[C@H](O[C@H]3[C@H](O)[C@@H](O)[C@H](N=C(N)N)[C@@H](O)[C@@H]3N=C(N)N)O[C@@H](C)[C@]2(O)C=O)O[C@@H](CO)[C@H](O)[C@H]1O` [STREPTOMYCIN], the Kd in [8] is less than 12000 nM.

Consider `C=C(NC(=O)C(=C)NC(=O)c1csc(C2=N[C@@H]3c4csc(n4)[C@H]4NC(=O)c5csc(n5)[C@H]([C@](C)(O)[C@@H](C)O)NC(=O)[C@H]5CSC(=N5)/C(=C/C)NC(=O)[C@H]([C@@H](C)O)NC(=O)c5csc(n5)[C@]3(CC2)NC(=O)[C@H](C)NC(=O)C(=C)NC(=O)[C@H](C)NC(=O)[C@H]([C@@H](C)CC)N[C@@H]2C=Cc3c([C@H](C)O)cc(nc3[C@H]2O)C(=O)O[C@@H]4C)n1)C(N)=O` [THIOSTREPTON], for which the Kd in [6] was 1300 nM; in assay [9], less than 50 nM.

In turn, `NC[C@H]1O[C@H](O[C@H]2[C@H](O)[C@@H](O[C@H]3O[C@H](CO)[C@@H](O)[C@H](N)[C@H]3O)[C@H](N)C[C@@H]2N)[C@H](N)C[C@@H]1O` [TOBRAMYCIN] returned a Kd in [5] of 80 nM.

As for `CC[C@H]1OC(=O)C[C@@H](O)[C@H](C)[C@@H](O[C@@H]2O[C@H](C)[C@@H](O[C@H]3C[C@@](C)(O)[C@@H](O)[C@H](C)O3)[C@H](N(C)C)[C@H]2O)[C@@H](CC=O)C[C@@H](C)C(=O)/C=C/C(C)=C/[C@@H]1CO[C@@H]1O[C@H](C)[C@@H](O)[C@@H](OC)[C@H]1OC` [TYLOSIN], the Kd in assay [10] was found to be 2.75 nM.

Turning to `NCCC[C@H](N)CC(=O)N[C@H]1CNC(=O)[C@H]([C@H]2C[C@H](O)NC(N)=N2)NC(=O)/C(=C/NC(N)=O)NC(=O)[C@H](CO)NC(=O)[C@H](CO)NC1=O` [VIOMYCIN] (β3hOrn-[Dap]SS[ΔAla(Z-3-ureido)][X1]; lactam 1-C), the dissociation constant (Kd) in assay [11] was less than 3000 nM.
